Ki data for eleven compounds are collected here from patent publication US8138188B2, “Melanocortin type 4 receptor agonist piperidinoylpyrrolidines” (Pfizer Inc., priority 2006, dated 2012).

The target in one assay is T1, MC3 receptor (MC3R) (Homo sapiens, UniProt P41968).
T1 construct: expressed in transfected cells; host or cells: CHO-CRE MC3R cells (membranes)
Description: Nle4, D-Phe7-α-MSH inhibition at the MC3 receptor (SPA competition binding). The following applies: vs 0.06 nM Nle4, D-Phe7-α-MSH, CHO-CRE MC3R cell membranes. From the text: Nle4, D-Phe7-α-MSH Inhibition at the MC3 Receptor
Nle4, D-Phe7-α-MSH is a stable analogue of melanocyte-stimulating hormone (MSH), which is an agonist at the MC3 receptor (MC3R). Compounds can be evaluated for their ability to inhibit Nle4, D-Phe7-α-MSH binding to membranes from cells expressing the MC3R using a competition binding assay versus [^125I] Nle4, D-Phe7-α-MSH.
Cells expressing the MC3R were subject to homogenisation and the membrane fragment isolated by differential centrifugation. CHO-CRE MC3R cell membranes were coupled to PVT-PEI-WGA SPA Beads type A for 2 hours, spun at 1000 RPM for 5 mins and suspended to a final assay concentration of 800 ug bead/ml (1.2 ug membrane, 40 ug bead per well). Bead/membrane mix was incubated with 0.06 nM Nle4, D-Phe7-α-MSH and 11 half-log concentrations of competitor ligand, in duplicate, in a total volume of 50 μl buffer per well (25 mM HEPES, 1 mM MgCl2, 2.5 mM CaCl2, 1% Pluronic F68, 1 complete EDTA protease inhibitor tablet/50 ml pH7).
Non-specific binding was determined by the inclusion of 100 nM SHU9119. The reaction was initiated by the addition of bead/membranes and plates were incubated at room temperature for 12 hours (the first hour on a plate shaker), after which the amount of radioactivity present was determined using a Wallac plate counter. Ki values were determined by data analysis using appropriate software.

The target in another assay is T2, MC4 receptor (MC4R) (Homo sapiens, UniProt P32245).
T2 construct: expressed in transfected cells; host or cells: CHO-CRE MC4R cells (membranes)
T2 sequence (P32245 whole entry): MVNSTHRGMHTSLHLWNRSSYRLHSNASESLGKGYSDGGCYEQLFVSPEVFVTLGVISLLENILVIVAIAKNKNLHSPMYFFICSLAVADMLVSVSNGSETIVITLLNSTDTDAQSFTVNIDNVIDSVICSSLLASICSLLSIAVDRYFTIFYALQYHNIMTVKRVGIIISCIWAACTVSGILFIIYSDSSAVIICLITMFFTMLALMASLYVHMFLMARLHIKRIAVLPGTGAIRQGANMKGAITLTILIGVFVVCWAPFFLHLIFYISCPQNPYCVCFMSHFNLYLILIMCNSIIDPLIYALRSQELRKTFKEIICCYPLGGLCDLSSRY
Kind of assay: Nle4, D-Phe7-α-MSH inhibition at the MC4 receptor (SPA competition binding vs [125I] Nle4, D-Phe7-α-MSH). As to conditions: vs 0.06 nM [125I] Nle4, D-Phe7-α-MSH, CHO-CRE MC4R cell membranes. The source says: Nle4, D-Phe7-α-MSH Inhibition at the MC4 Receptor
Nle4, Nle4, D-Phe7-α-MSH is a stable analogue of melanocyte-stimulating hormone (MSH), which is an agonist at the MC4 receptor (MC4R). Compounds can be evaluated for their ability to inhibit Nle4, Nle4, D-Phe7-α-MSH binding to membranes from cells expressing the MC4R using a competition binding assay versus [^125I] Nle4, D-Phe7-α-MSH.
Cells expressing the MC4R were subject to homogenisation and the membrane fragment isolated by differential centrifugation. CHO-CRE MC4R cell membranes were coupled to PVT-PEI-WGA SPA Beads type A for 2 hours, spun at 1000 RPM for 5 mins and suspended to a concentration of 300 ug bead/ml (0.15 ug membrane, 15 ug bead per well). Bead/membrane mix was incubated with 0.06 nM [^125I] Nle4, D-Phe7-α-MSH and 11 half-log concentrations of competitor ligand, in duplicate, in a total volume of 50 μl buffer per well (25 mM HEPES, 1 mM MgCl2, 2.5 mM CaCl2, 1% Pluronic F68, 1 complete EDTA protease inhibitor tablet/50 ml pH7). Non-specific binding was determined by the inclusion of 100 nM SHU9119. The reaction was initiated by the addition of bead/membranes and plates were incubated at room temperature for 12 hours (the first hour on a plate shaker), after which the amount of radioactivity present was determined using a Wallac plate counter. Ki values were determined by data analysis using appropriate software.

T1 sequence (P41968 whole entry): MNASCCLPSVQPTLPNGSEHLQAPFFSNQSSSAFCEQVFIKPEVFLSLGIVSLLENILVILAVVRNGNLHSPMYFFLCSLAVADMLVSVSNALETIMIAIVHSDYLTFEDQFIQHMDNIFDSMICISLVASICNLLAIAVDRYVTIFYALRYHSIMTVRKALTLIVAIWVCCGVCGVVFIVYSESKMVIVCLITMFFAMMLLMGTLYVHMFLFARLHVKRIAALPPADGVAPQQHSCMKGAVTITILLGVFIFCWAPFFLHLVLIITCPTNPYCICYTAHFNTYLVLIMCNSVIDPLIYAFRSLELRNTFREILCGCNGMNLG

Take `C[C@@H]1CN(C(=O)[C@@H]2CN(c3ccc(=O)n(C)n3)C[C@H]2c2ccc(Cl)cn2)C[C@H](C)[C@@]1(O)C1CCCCC1` [Example 17]: the figures for the Ki on MC3 receptor (MC3R) and at MC4 receptor (MC4R) were 332 nM and 112 nM, respectively.

With `C[C@@H]1CN(C(=O)[C@@H]2CN(c3ccc(C#N)nn3)C[C@H]2c2ccc(F)cn2)C[C@H](C)[C@@]1(O)c1ccc(Cl)cc1` [Example 32], the values for the inhibition constant (Ki) on MC3 receptor (MC3R) and at MC4 receptor (MC4R) were 456 nM and 150 nM, respectively. On the same counts, the results for `CC1CN(C(=O)C2CN(c3cncc(F)c3)CC2c2ccc(Cl)cn2)CC(C)C1(O)c1ccc(F)cc1` (stereo not shown) [Example 25] are below 0.105 nM and 10.9 nM. On the same counts, the results for `CC1CN(C(=O)C2CN(c3ccc(=O)n(C)n3)CC2c2ccc(Cl)cn2)CC(C)C1(O)c1ccc(F)c(F)c1` (stereo not shown) [Example 19] are 568 nM and 85.4 nM.

As to `C[C@@H]1CN(C(=O)[C@@H]2CN(c3ccc(=O)n(C)n3)C[C@H]2c2ccc(Cl)cn2)C[C@H](C)[C@@]1(O)c1ccccn1` [Example 22], the Ki at MC3 receptor (MC3R) amounted to 5560 nM.

Consider `COc1ccc(C2(O)C(C)CN(C(=O)C3CN(c4ccc(=O)n(C)n4)CC3c3ccc(Cl)cn3)CC2C)cc1` (stereo not shown) [Example 20], for which the figures for the Ki on MC3 receptor (MC3R) and at MC4 receptor (MC4R) were 1020 nM and 251 nM, respectively. In turn, `C[C@@H]1CN(C(=O)[C@@H]2CN(c3ccc(C#N)nn3)C[C@H]2c2ccc(C#N)cn2)C[C@H](C)[C@@]1(O)c1ccc(F)cc1` [Example 46] came in with a Ki at MC3 receptor (MC3R) of 551 nM. For the compound `C[C@@H]1CN(C(=O)[C@@H]2CN(c3ccc(C#N)nn3)C[C@H]2c2ccc(Cl)cn2)C[C@H](C)[C@@]1(O)c1ccc(F)cc1` [Example 2, 6-[(3S,4S)-3-(5-Chloropyridin-2-yl)-4-{[(3R,4R,5S)-4-(4-fluorophenyl)-4-hydroxy-3,5-dimethylpiperidin-1-yl]carbonyl}pyrrolidin-1-yl]pyridazine-3-carbonitrile], the Ki on MC3 receptor (MC3R) turned out to be 124 nM; at MC4 receptor (MC4R) it was 27 nM. As for `C[C@@H]1CN(C(=O)[C@@H]2CN(c3ccc(=O)[nH]n3)C[C@H]2c2ccc(Cl)cn2)C[C@H](C)[C@@]1(O)c1ccccn1` [Example 28], affinity at MC3 receptor (MC3R) was put at a Ki of 1670 nM.

Consider `CC1CN(C(=O)C2CN(c3ccc(=O)n(C)n3)CC2c2ccc(Cl)cn2)CC(C)C1(O)c1ccc(Cl)cc1` (stereo not shown) [Example 23], for which the Ki came out at 264 nM on MC3 receptor (MC3R) and 65.7 nM on MC4 receptor (MC4R). Turning to `C[C@@H]1CN(C(=O)[C@@H]2CN(c3ccc(=O)n(C)n3)C[C@H]2c2ccc(Cl)cn2)C[C@H](C)[C@@]1(O)c1ccc(Cl)cn1` [Example 10], the values for the Ki on MC3 receptor (MC3R) and at MC4 receptor (MC4R) were 977 nM and 276 nM, respectively.
